PMC10142183, “Optimization of polymyxin B regimens for the treatment of carbapenem-resistant organism nosocomial pneumonia: a real-world prospective study” (Critical Care, 2023)
Positions of bridges follow the written chain, without caps; N, C: chain ends. Non-standard residues stand in square brackets, D forms with d. Residues, ends and D or L forms follow the SMILES beside them. *: point of attachment. X1 = CC[C@H](C)CCCCC(=O)*; Dab = NCC[C@H](N)C(=O)O

Columns and labels:
CRO nosocomial pneumonia [1] = assay: PK/PD analysis for clinical efficacy in CRO nosocomial pneumonia; type: in vivo, human
Method: This prospective study was conducted at two intensive care units (ICU) between January 2020 and December 2021 in the Second Xiangya Hospital of Central South University (Changsha, China). […] The exclusion criteria were as follows: (a) concomitant lung cancer with obstructive pneumonitis or cystic fibrosis; (b) solid organ transplantation; (c) hematologic malignancies and hematopoietic cell transplant recipients; (d) receiving renal replacement therapy. HAP was defined according to the 2016 clinical practice guidelines of the Infectious Diseases Society of America and the American Thoracic Society. Determination of carbapenem susceptibility of CRO was followed by the European Committee on Antimicrobial Susceptibility Testing (EUCAST). Updated EUCAST Clinical Breakpoints of polymyxin B were sensitivity (S ≤ 2 mg/L) and drug resistance (R > 2 mg/L). The antimicrobial susceptibility testing was performed using the VITEK-2 Compact system with VITEK cards (0.5–16 mg/L for colistin) (bioMérieux, France). The following information was extracted from the electronic medical records: demographic and co-morbidity profiles, clinical and microbiological features of the infections, and the antimicrobial treatment regimens. Creatinine clearance (CrCL) was calculated using the Cockcroft–Gault equation. The endpoint was clinical efficacy and 30-day all-cause mortality. Assessment of clinical efficacy was conducted at the end of treatment, and 30-day mortality was recorded from the start of polymyxin B treatment. This prospective study was approved by the Ethics Committee of the Second Xiangya Hospital, Central South University. Informed consent was obtained from all patients or legal representatives of the patients (No. ChiCTR1900022231).
Clinical outcomes were classified as clinical success (CS) and clinical failure (CF), and were assessed by two physicians. CS was defined as a composite of survival; hemodynamic stability; body temperature < 38 °C, improved biochemistry indicators of infection; stable or improved PaO2/FiO2 ratio. Additionally, for patients with bacteremia, microbiological cure (no growth of the initial isolate in blood cultures) must be achieved by the end of the treatment. […] 30-day all-cause mortality was recorded from the start of polymyxin B treatment.
Variables potentially related to clinical efficacy and 30-day all-cause mortality were assessed, including: demographics, co-morbidities, clinical conditions, dosage regimen and concentration of polymyxin B. To develop receiver operating characteristic (ROC) curves, the PK/PD indices AUCss,24 h/MIC, Cmax,ss/MIC and Cmin,ss/MIC were used as predictors of clinical efficacy. The area under the diagnostic curve (AUCROC) was calculated to evaluate the correlation of the above parameters with clinical efficacy and 30-day all-cause mortality. Youden index of the ROC curves was calculated by "sensitivity + specificity-1", and the values corresponding to the maximum Youden index is the optimal cutoff point value of the PK/PD indices.
Statistical analysis was performed with SPSS 24.0 (SPSS, IBM Company, Chicago, IL, USA) software. Continuous variables are presented as the mean ± standard deviation (SD) if normally distributed and were compared using Student’s t tests. The median and interquartile range (IQR) are presented for abnormally distributed data, and the Mann–Whitney U test was used. Categorical variables are expressed as counts and percentages, and the chi-square test or Fisher’s exact test was used. Spearman’s rank correlation coefficient (r) was used to analyze the correlation between Cmin,ss, Cmax,ss and AUCss,24 h. Univariate analysis was performed for all variables to identify possible predictors for clinical efficacy. Variables with a p < 0.05 were entered into the multivariate logistic regression models. […]

[2] = critically ill patients; weight-based regimen 1.25-1.5 mg/kg every 12 h; cited from earlier work
Method: At present, weight-based dosing regimen (1.25–1.5 mg/kg every 12 h) is recommended for polymyxin B [17, 18]. However, polymyxin B concentration varies widely in critically ill patients with this regimen, and almost 30% patients cannot achieve AUCss,24 h values within the target therapeutic window. […] Due to these inconsistent results, further research is needed to improve the charac ...

[3] = Population PK model and plasma exposure in critically ill patients (HPLC-MS/MS, Phoenix NLME); type: in vivo, human; design: AUCss, 24h: concentration or dose not given beside the values
Method: Polymyxin B was given to all patients empirically as a loading dose of 100–200 mg followed by a maintenance dose of 40–100 mg every 12 h for at least 3 days. The infusion time was at least 1 h. Aerosol delivery of polymyxin B (25 mg or 50 mg twice daily) was using a vibrating mesh nebulizer, synchronized with the inspiratory cycle of the ventilator. Two to six blood samples (2 mL) were randomly collected immediately before the seventh dose of polymyxin B and at 0, 1, 2, 4, 6, 8 and 10 h after the end of infusion. The supernatant was immediately stored at − 80 °C until analysis.
An established high-performance liquid chromatography-tandem mass spectrometry (HPLC–MS/MS) was used to measure the concentrations of polymyxin B1 and polymyxin B2 as described previously by the authors’ laboratory (The total concentration of polymyxin B = [polymyxin B1 concentration/polymyxin B1 molecular + polymyxin B2 concentration/polymyxin B2 molecular]*total polymyxin B molecular). The interday precision was < 12%, the intraday precision was < 9%, and the accuracy ranged from 96.1 to 110.4%. The limit of quantification (LLOD) was 0.03 mg/L, and all of the polymyxin B concentrations detected were over LLOD.
The Phoenix NLME program (version 8.1. Pharsight, A Certara Company, USA) with the method of first-order conditional estimation-extended least square method (FOCE-ELS) was used to develop the population PK model by analyzing polymyxin B concentration. The objective function value (OFV), goodness-of-fit plots and the reasonable of population PK parameters were used to selection of the structure model. The stepwise covariate modeling (SCM) approach was used to test the covariate model in this analysis; age, sex, body weight, alanine aminotransferase (ALT), aspartate aminotransferase (AST), total bilirubin (TBIL), direct bilirubin (DBIL), serum albumin (ALB) and CrCL were evaluated as the covariates. The SCM consists of a forward selection step (the criterion is p < 0.05 for ΔOFV decreased ≥ 3.84) and a backward elimination step (the criterion is p < 0.001 for ΔOFV increased ≥ 10.83). In addition, the goodness-of-fit plots were used to assess the validity of the population PK model, the prediction-corrected visual predictive check (pcVPC) was used to assess the predictive performance of the key models. The bootstrap method was used to assess the accuracy.
The PK/PD indices included AUCss,24 h, AUCss,24 h/MIC, the peak and trough concentration at steady state (Cmax,ss and Cmin,ss), Cmax,ss /MIC and Cmin,ss /MIC. AUCss,24 h, Cmax,ss and Cmin,ss were calculated based on the empirical Bayesian (EBEs). For those patients with more than one baseline pathogen, AUCss,24 h/MIC, Cmax,ss /MIC and Cmin,ss /MIC evaluations were based on the pathogen with the highest MIC value.

CRO nosocomial pneumonia [4] = assay: 30-day all-cause mortality in CRO nosocomial pneumonia; type: in vivo, human; conditions: Cox regression, p = 0.001
Method: This prospective study was conducted at two intensive care units (ICU) between January 2020 and December 2021 in the Second Xiangya Hospital of Central South University (Changsha, China). […] The exclusion criteria were as follows: (a) concomitant lung cancer with obstructive pneumonitis or cystic fibrosis; (b) solid organ transplantation; (c) hematologic malignancies and hematopoietic cell transplant recipients; (d) receiving renal replacement therapy. HAP was defined according to the 2016 clinical practice guidelines of the Infectious Diseases Society of America and the American Thoracic Society. Determination of carbapenem susceptibility of CRO was followed by the European Committee on Antimicrobial Susceptibility Testing (EUCAST). […] Creatinine clearance (CrCL) was calculated using the Cockcroft–Gault equation. […] Assessment of clinical efficacy was conducted at the end of treatment, and 30-day mortality was recorded from the start of polymyxin B treatment. […]
Clinical outcomes were classified as clinical success (CS) and clinical failure (CF), and were assessed by two physicians. […] 30-day all-cause mortality was recorded from the start of polymyxin B treatment. […]
Statistical analysis was performed with SPSS 24.0 (SPSS, IBM Company, Chicago, IL, USA) software. […] Categorical variables are expressed as counts and percentages, and the chi-square test or Fisher’s exact test was used. […]

[5] = 30-day non-survival group (n = 28), median (IQR)
[6] = 30-day survival group (n = 77), median (IQR)
[7] = clinical failure group (n = 35), median (IQR)
[8] = clinical success group (n = 70), median (IQR)
[9] = final model estimate, two-compartment population PK, 105 patients, 295 plasma concentrations
[10] = median of 105 patients, plasma, empirical Bayesian estimates

Structure (SMILES): CC[C@H](C)CCCCC(=O)N[C@@H](CCN)C(=O)N[C@H](C(=O)N[C@@H](CCN)C(=O)N[C@H]1CCNC(=O)[C@H]([C@@H](C)O)NC(=O)[C@H](CCN)NC(=O)[C@H](CCN)NC(=O)[C@H](CC(C)C)NC(=O)[C@@H](Cc2ccccc2)NC(=O)[C@H](CCN)NC1=O)[C@@H](C)O [polymyxin B] (X1-[Dab]T[Dab][Dab][Dab][dF]L[Dab][Dab]T; lactam 4-C)
- OR of combination of inhaled polymyxin B for clinical efficacy (CRO nosocomial pneumonia [1]; 51 patients with AUCss,24 h/MIC < 66.9, 95% CI 0.06-0.79, p = 0.022): 0.21
- OR of combination of inhaled polymyxin B for clinical efficacy (CRO nosocomial pneumonia [1]; 54 patients with AUCss,24 h/MIC ≥ 66.9, 95% CI 0.09-2.46, p = 0.365): 0.46
- AOR of dose normalized-AUCss,24 h/MIC for efficacy (CRO nosocomial pneumonia [1]; Covariate-Adjusted Residuals method, 95% CI 0.38-1.01, p = 0.056): 0.62
- clinical success rate (CRO nosocomial pneumonia [1]; IV + IH group, AUCss,24 h/MIC ≥ 66.9 (54 patients)): 90.0%
- clinical success rate (CRO nosocomial pneumonia [1]; IV group, AUCss,24 h/MIC < 66.9 (51 patients)): 35.1%
- clinical success rate (CRO nosocomial pneumonia [1]; IV group, AUCss,24 h/MIC ≥ 66.9 (54 patients)): 82.3%
- favorable clinical outcomes in pneumonia patients with AUCss,24 h > 66.9 (CRO nosocomial pneumonia [1]; MIC mostly 1 mg/L): 85.2%
- optimal cutoff point value of AUCss,24 h/MIC for clinical efficacy (CRO nosocomial pneumonia [1]; ROC curve, largest Youden index, patients receiving combination therapy): 66.9
- clinical success rate (CRO nosocomial pneumonia [1]; all 105 patients (70/105), assessed at end of treatment, combination therapy with another antimicrobial): 66.7%
- clinical success rate (CRO nosocomial pneumonia [1]; intravenous plus inhaled (IV + IH) group, AUCss,24 h/MIC < 66.9 (51 patients)): 71.4%
- Adjusted OR (95% CI) of AUCss,24 h/MIC for clinical efficacy (CRO nosocomial pneumonia [1]; multivariate logistic regression, p = 0.009): 0.97 (0.95–0.99)
- Adjusted OR (95% CI) of daily dose (mg) for clinical efficacy (CRO nosocomial pneumonia [1]; multivariate logistic regression, p = 0.028, listed as PMB): 0.98 (0.97–0.99)
- Adjusted OR (95% CI) of combination of inhaled polymyxin B for clinical efficacy (CRO nosocomial pneumonia [1]; multivariate logistic regression, p = 0.039, aerosol 25 or 50 mg twice daily, listed as PMB): 0.32 (0.11–0.94)
- patients who cannot achieve AUCss,24 h values within the target therapeutic window [2]: ~30%
- AUCss, 24h [3, 5]: 62.1 (46.3, 83.2) mg·h/L
- Cmax,ss [3, 5]: 5.4 (4.6, 6.1) μg/mL
- Cmin,ss [3, 5]: 2.1 (1.6, 2.6) μg/mL
- Cmin,ss /MIC [3, 5]: 2.2 (1.6, 2.7)
- AUCss, 24h [3, 6]: 69.4 (58.5, 86.9) mg·h/L
- Cmax,ss [3, 6]: 6.5 (5.8, 7.2) μg/mL
- Cmin,ss [3, 6]: 2.2 (1.9, 2.5) μg/mL
- Cmin,ss /MIC [3, 6]: 2.2 (1.9, 2.5)
- CL (clearance in central compartment) ([3]; bootstrap method estimate): 1.56 L/h
- CLd (clearance between central and peripheral compartment) ([3]; bootstrap method estimate): 2.41 L/h
- Vc (volume distribution in central compartment) ([3]; bootstrap method estimate): 12.5 L
- Vp (volume in peripheral compartment) ([3]; bootstrap method estimate): 29.9 L
- AUCss, 24h [3, 7]: 60.6 (43.5, 66.6) mg·h/L
- Cmax,ss [3, 7]: 5.1 (3.7, 6.9) μg/mL
- Cmin,ss [3, 7]: 1.8 (1.0, 2.5) μg/mL
- Cmin,ss /MIC [3, 7]: 1.7 (0.9, 1.9)
- AUCss, 24h [3, 8]: 78.6 (62.4, 84.2) mg·h/L
- Cmax,ss [3, 8]: 6.8 (5.0, 7.6) μg/mL
- Cmin,ss [3, 8]: 2.4 (1.6, 2.8) μg/mL
- Cmin,ss /MIC [3, 8]: 2.4 (1.4, 3.1)
- CLd (clearance between central and peripheral compartment) [3, 9]: 2.41 L/h
- Vc (volume distribution in central compartment) [3, 9]: 12.5 L
- Vp (volume in peripheral compartment) [3, 9]: 29.9 L
- CL (clearance in central compartment) ([3]; final model estimate, two-compartment population PK, 105 patients, 295 plasma concentrations, IV 100-200 mg loading then 40-100 mg every 12 h): 1.56 L/h
- AUCss, 24h [3, 10]: 67.2 mg·h/L
- Cmax,ss (peak concentration at steady state) [3, 10]: 5900 ng/mL
- Cmin,ss (trough concentration at steady state) [3, 10]: 1900 ng/mL
- HR (95% CI) of PMB treatment duration (day) for 30-day mortality (CRO nosocomial pneumonia [4]): 0.67 (0.53-0.85)
